Results published in article PMC11536340, “A Dynamic Loop in Halohydrin Dehalogenase HheG Regulates Activity and Enantioselectivity in Epoxide Ring Opening” (ACS Catalysis, 2024).
Where two headings read alike, the source gives them in different places.

Molecular target: T1, HheG (Ilumatobacter coccineus, UniProt Z9P531QQL2, M65F, form not given)
T1 construct: homotetramer
T1 sequence (Z9P531QQL2 21-282 M65F): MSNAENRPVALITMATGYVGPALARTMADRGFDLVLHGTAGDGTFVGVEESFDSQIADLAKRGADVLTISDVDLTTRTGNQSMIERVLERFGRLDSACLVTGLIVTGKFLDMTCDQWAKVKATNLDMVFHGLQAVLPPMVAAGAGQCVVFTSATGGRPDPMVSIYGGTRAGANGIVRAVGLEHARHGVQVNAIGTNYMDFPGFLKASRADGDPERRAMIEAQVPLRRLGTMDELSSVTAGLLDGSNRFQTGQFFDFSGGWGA
Assay: BTB (bromothymol blue) pH-indicator assay, initial rates, Hill fit
Assay type: biochemical
Conditions: 2 mM MOPS pH 7.0
Description: BTB (bromothymol blue) pH-indicator assay, initial rates, Hill fit on HheG

Structure (SMILES) | Km (azide fixed at 60 mM, Hill coefficient n 3.33 ± 0.27, read-out: cyclohexene oxide / K50) [mM] | Km (cyclohexene oxide fixed at 100 mM, Hill coefficient n 3.94 ± 0.29, read-out: azide / K50) [mM]
C1CCC2OC2C1 (centres unmarked) [compound 1, cyclohexene oxide] | 28 ± 0.64 | –
[N-]=[N+]=[N-] [azide] | – | 10.1 ± 0.21
